Measured values published in patent US20020040139A1, “INTRANASAL FORMULATIONS FOR TREATING SEXUAL DISORDERS” (priority 1998, published 2002).
Where a name gives a salt, the structure may show the parent alone.

Tests used:
[1] = Plasma levels in human volunteers after intranasal administration; type: in vivo; settings: man
[2] = Plasma levels in dogs after intranasal versus oral dosing; type: in vivo
Experimental: The effectiveness of the intranasal formulations of the present invention were evaluated in dogs. Four fasted dogs were lightly anaesthetised, each received 5 mg of the cGMP-PDE5 inhibitor in both nostrils. The drug was administered both as a powder and as a solution. Plasma levels of the active agent were measured and compared with plasma levels obtained when the dogs were previously orally dosed with the agent.
Thus a solution dose of 0.7 mg/kg of sildenafil mesylate administered by the intranasal route to four dogs gave a mean peak blood plasma levels of 407 ng/ml after a period of 5 minutes.

[3] = Aqueous solubility of sildenafil mesylate; type: physicochemical; settings: no solubility enhancing agent
Experimental: Preferred as solubility enhancing agents are caffeine (preferably at a concentration of from 1.0 to 2.5% weight/vol); nicotinamide (preferably 3.0 to 20.0% weight/vol); vanillin (preferably 0.5 to 2.5% weight/vol); and benzyl alcohol (preferably 0.5 to 2.5% weight/vol). A combination of nicotinamide and vanillin is also preferred. By using such solubility enhancing agents, it is possible to increase the solubility of sildenafil mesylate in water from approximately 60 mg/ml to in excess of 100 mg/ml. This allows a more concentrated solution to be administered facilitating a rapid onset of action and reducing irritancy. One particular and preferred formulation comprises sildenafil mesylate 100 mg/ml and caffeine 15 mg/ml in a buffered aqueous solution. The pH of the solution is preferably adjusted to pH 3-5, preferably to pH 4.2 by the addition of a base e.g. sodium hydroxide.

[4] = four dogs, intranasal route, solution dose 0.7 mg/kg

| mean peak blood plasma level ([2]; dog, in vivo, po, 1.4 mg/kg) [ng/mL] | time of mean peak blood plasma level ([2]; dog, in vivo, po, 1.4 mg/kg) [min] | Compound | blood plasma levels of sildenafil versus oral dosing [1] | time of peak blood plasma levels after administration [1] [min] | blood plasma levels after intranasal versus oral administration ([2]; dogs, intranasal powder and solution, 5 mg in both nostrils, compared with oral dosing) | mean peak blood plasma level [2, 4] [ng/mL] | time of mean peak blood plasma level [2, 4] [min] | solubility in water [3] |
| --- | --- | --- | --- | --- | --- | --- | --- | --- |
|  |  | 5-[2-ethoxy-5-(4-methylpiperazin-1-ylsulphonyl)phenyl]-1,6-dihydro-1-methyl-3-propylpyrazolo[4,3-d]pyrimidin-7-one)methanesulphonate salt [sildenafil mesylate] | comparable with oral dosing | 5 to 15 | particularly effective | 407 | 5 | approximately 60 mg/ml |
| 204 | 136 | CCCc1nn(C)c2c(=O)[nH]c(-c3cc(S(=O)(=O)N4CCN(C)CC4)ccc3OCC)nc12 [sildenafil citrate, reference compound] |  |  |  |  |  |  |
